Activity calls are given as the source filed them.
Legend:
Escherichia coli = assay: Antimicrobial activity against Escherichia coli at 50 uM; assay type: functional, organism-based
HeLa = assay: Cytotoxicity against human HeLa cells at 50 uM; assay type: functional, cell-based
Candida albicans = assay: Antifungal activity against Candida albicans at 50 uM; assay type: functional, organism-based
Bacillus cereus = assay: Antimicrobial activity against Bacillus cereus at 50 uM; assay type: functional, organism-based

Measured: Activity

CC(C)=CCc1ccc(O)c(C2c3c(O)cc(C(=O)O)cc3C(=O)N2CCO)c1O (stereo not drawn)
inactive: all assays above

O=c1c2cc3c(CO)cc4cc(O)cc(O)c4c3oc-2cc2cc(O)cc(O)c12
inactive: all assays above

From ChEMBL document CHEMBL4616654, “Irpexine, an Isoindolinone Alkaloid Produced by Coculture of Endophytic Fungi, Irpex lacteus and Phaeosphaeria oryzae” (J Nat Prod, 2020)
